Source: paper PMC3816002 (Biochimica et biophysica acta, 2013)

Target: T1, CIITA (Homo sapiens, UniProt P33076, G420A/G425A/K426E)
T1 sequence (P33076 1-1130 G420A/G425A/K426E): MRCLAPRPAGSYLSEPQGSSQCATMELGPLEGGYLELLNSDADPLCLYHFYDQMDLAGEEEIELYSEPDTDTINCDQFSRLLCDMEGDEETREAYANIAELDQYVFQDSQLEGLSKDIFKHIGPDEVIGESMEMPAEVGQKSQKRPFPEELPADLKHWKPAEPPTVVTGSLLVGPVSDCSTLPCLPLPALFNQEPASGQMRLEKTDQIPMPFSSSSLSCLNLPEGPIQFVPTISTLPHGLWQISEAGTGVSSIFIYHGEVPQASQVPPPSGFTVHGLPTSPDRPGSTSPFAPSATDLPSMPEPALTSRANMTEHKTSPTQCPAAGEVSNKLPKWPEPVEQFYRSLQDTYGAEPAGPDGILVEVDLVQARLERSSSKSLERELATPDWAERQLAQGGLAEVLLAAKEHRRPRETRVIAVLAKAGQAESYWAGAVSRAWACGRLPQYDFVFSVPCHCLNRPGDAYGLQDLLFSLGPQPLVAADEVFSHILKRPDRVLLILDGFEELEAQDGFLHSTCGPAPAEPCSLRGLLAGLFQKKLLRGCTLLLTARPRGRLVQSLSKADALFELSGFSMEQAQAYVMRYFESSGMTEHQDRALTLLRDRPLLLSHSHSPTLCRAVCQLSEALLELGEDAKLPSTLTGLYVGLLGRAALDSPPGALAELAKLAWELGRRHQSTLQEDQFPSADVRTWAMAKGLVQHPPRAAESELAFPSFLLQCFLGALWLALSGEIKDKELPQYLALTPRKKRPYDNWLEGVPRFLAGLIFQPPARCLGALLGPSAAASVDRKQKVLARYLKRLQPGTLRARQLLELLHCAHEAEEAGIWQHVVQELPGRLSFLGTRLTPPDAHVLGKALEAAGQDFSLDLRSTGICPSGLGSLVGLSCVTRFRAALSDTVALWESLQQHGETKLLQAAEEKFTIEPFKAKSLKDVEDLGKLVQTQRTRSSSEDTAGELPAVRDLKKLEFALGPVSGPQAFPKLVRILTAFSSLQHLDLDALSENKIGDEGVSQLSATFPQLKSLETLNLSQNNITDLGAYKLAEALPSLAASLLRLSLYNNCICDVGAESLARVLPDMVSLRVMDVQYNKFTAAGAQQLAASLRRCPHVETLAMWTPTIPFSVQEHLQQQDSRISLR
Test: […] autophosphorylation kinase assay, SDS-PAGE, phosphorimager
Assay type: biochemical
Conditions: labelled compound; 5 mM MnCl2, 5 mM MgCl2, pH 7.5, 30 °C

Nc1ncnc2c1ncn2[C@@H]1O[C@H](COP(=O)(O)OP(=O)(O)OP(=O)(O)O)[C@@H](O)[C@H]1O [ATP]
32P autophosphorylation kinase assay, SDS-PAGE, phosphorimager: No loss of kinase activity was detected in the putative ATP binding site mutant
